Source: ChEMBL document CHEMBL1201862, “PubChem BioAssay data set” (2004)
The source made the active and inactive calls.

Tests used:
[1] = Vero E6 cell cytotoxicity, dose response, cytotoxicity control for non-replicating M. tuberculosis project, secondary assay (AID 492998); format: functional, VeroE6; conditions: Vero C1008
[2] = THP-1 cell cytotoxicity, dose response, cytotoxicity control for non-replicating M. tuberculosis project (AID 489025); format: functional
[3] = cells; format: functional
[4] = AlphaScreen signal interference compounds, dose response, artefact control for ARNT-TACC3 interaction inhibitor project, biochemical, luminescence, cherry-pick (AID 651705); format: functional;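 also: AlphaScreen bead proximity signal that flags compounds interfering with the detection technology; potency reflects signal decrease which marks the compound as an assay artifact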
[5] = microbe, parasite or virus in culture; format: functional; conditions: Mycobacterium tuberculosis
[6] = HepG2 cell cytotoxicity, dose response, cytotoxicity control for non-replicating M. tuberculosis project (AID 489018); format: functional; conditions: Mycobacterium tuberculosis
[7] = molecular target: Nonstructural protein 1 (Influenza A virus, UniProt Q194T2); format: functional, Influenza A virus (A/California/07/2009(H1N1))
[8] = molecular target: T1, Polyadenylate-binding protein 1 (Homo sapiens, UniProt P11940); assay: PABP1 MLLE–PAM2 interaction inhibitors, dose response, miRNA deadenylation inhibitor project, biochemical, fluorescence polarization, Cy5-PAM2 peptide, secondary (AID 602260); format: functional; conditions: read-out: IC50_Mean
[9] = molecular target: Female germline-specific tumor suppressor gld-1 (Caenorhabditis elegans, UniProt Q17339); assay: inhibitors of GLD-1 binding to TGE RNA, dose response, biochemical, fluorescence polarization, C. elegans (AID 2802);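 also: fluorescence polarization of labeled TGE RNA bound by purified gld-1 protein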
[10] = molecular target: Protein Rev (Human immunodeficiency virus type 1 group M subtype B (isolate HXB2)(HIV-1), UniProt P04618); assay: inhibitors of Rev binding to RRE RNA, dose response, biochemical, fluorescence polarization, HIV-1 (AID 434976); design: species or system Human immunodeficiency virus 1
[11] = molecular target: T1, Polyadenylate-binding protein 1; assay: PABP1 MLLE–PAM2 binding inhibitor potency, dose response, biochemical, fluorescence polarization, FITC-PAM2 peptide (AID 602259); format: functional; conditions: read-out: IC50_Mean
[12] = molecular target: T2, RNA-binding protein pos-1 (Caenorhabditis elegans, UniProt G5EF15); assay: inhibitors of POS-1/mex-3 RNA binding, dose response, biochemical, fluorescence polarization (AID 1964);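 also: purified POS-1 fused to maltose binding protein made in E. coli; potency of compounds blocking POS-1 binding to fluorescent RNA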
T2 sequence (G5EF15 whole entry): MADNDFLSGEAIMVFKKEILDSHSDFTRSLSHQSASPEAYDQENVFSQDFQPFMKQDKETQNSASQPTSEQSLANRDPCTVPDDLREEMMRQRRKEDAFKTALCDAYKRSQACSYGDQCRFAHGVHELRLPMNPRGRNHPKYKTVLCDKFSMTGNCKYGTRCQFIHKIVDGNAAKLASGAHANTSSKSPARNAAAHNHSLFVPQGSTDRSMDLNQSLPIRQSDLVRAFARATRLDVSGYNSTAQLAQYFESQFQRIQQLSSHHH

[13] = molecular target: T3, Zinc finger protein mex-5 (Caenorhabditis elegans, UniProt Q9XUB2); assay: MEX-5/TCR-2 RNA interaction inhibitors, dose response, biochemical, C. elegans, fluorescence polarization (AID 1960)
T3 sequence (Q9XUB2 whole entry): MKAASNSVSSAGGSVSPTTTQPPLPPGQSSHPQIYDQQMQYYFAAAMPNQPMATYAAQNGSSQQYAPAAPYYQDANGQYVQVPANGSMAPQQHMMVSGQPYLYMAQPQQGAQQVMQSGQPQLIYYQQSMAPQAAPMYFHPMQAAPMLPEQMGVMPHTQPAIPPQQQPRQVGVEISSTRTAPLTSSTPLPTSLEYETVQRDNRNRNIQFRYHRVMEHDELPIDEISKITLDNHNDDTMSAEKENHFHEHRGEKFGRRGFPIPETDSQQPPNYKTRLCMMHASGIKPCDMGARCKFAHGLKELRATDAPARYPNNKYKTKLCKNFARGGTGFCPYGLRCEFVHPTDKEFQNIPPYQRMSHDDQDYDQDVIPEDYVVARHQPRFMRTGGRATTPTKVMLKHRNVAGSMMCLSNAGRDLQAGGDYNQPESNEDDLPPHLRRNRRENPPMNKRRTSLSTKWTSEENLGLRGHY

[14] = LGR2 antagonists, dose response, cell-based, HEK293, CRE-luciferase reporter, cherry pick, set 2 (AID 743343); format: functional;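 also: transfected cells were stimulated with diluted bursicon conditioned medium after compound addition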
[15] = molecular target: T4, DNA dC->dU-editing enzyme APOBEC-3A (Homo sapiens, UniProt P31941); assay: Dose Response confirmation of small molecule APOBEC3A DNA Deaminase Inhibitors via a fluorescence-based single-stranded DNA deaminase assay. [Related pubchem assays (depositor defined):AID493011, AID493024]; format: functional
[16] = MC4R antagonists, dose response, counter-screen for LGR2 antagonist project, cell-based, plate reader, cherry pick (AID 743444); format: functional;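 also: transfected HEK 293 cells stimulated with alpha-MSH peptide; potency of inhibitors of the alpha-MSH evoked signal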
[17] = molecular target: T5, Nuclear receptor subfamily 0 group B member 1 (Homo sapiens, UniProt P51843); format: functional, cell-based;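 also: HEK293T cells transfected with SF-1 and DAX-1 plus StAR promoter luciferase reporter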
T5 sequence (P51843 whole entry): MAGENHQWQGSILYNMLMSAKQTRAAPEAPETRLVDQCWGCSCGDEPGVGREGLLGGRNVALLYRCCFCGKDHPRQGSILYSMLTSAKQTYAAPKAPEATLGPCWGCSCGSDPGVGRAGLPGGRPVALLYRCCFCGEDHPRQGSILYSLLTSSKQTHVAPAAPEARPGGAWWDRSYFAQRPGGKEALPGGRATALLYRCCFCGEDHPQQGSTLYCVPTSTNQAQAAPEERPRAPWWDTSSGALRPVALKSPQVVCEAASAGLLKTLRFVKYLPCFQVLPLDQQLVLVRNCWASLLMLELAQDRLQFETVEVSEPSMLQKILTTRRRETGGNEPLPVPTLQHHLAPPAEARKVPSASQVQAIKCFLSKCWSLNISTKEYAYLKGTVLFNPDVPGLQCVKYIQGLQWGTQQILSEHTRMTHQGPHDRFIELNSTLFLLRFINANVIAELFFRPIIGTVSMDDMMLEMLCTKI

[18] = cells; format: functional, cell-based
[19] = HepG2 cell cytotoxicity, dose response, cytotoxicity control, plate reader, cherry-pick, antagonist series (AID 743416); format: functional, cell-based
[20] = molecular target: T6, DNA dC->dU-editing enzyme APOBEC-3G (Homo sapiens, UniProt Q9HC16); format: functional
[21] = molecular target: T7, Phosphomannomutase 2 (Homo sapiens, UniProt O15305); assay: Counter screen SAR assay for PMM2 inhibitors via a fluorescence intensity assay. [Related pubchem assays (depositor defined):AID1545, AID1574]
T7 sequence (O15305 whole entry): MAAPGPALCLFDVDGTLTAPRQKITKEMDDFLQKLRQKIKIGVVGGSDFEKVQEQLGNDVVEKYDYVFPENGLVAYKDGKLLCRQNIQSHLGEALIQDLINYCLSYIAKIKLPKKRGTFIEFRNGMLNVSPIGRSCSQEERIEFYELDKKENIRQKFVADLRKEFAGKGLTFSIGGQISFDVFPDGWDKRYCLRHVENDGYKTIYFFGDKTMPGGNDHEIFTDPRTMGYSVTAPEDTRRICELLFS

[22] = molecular target: Phosphoethanolamine/phosphocholine phosphatase (Homo sapiens, UniProt Q8TCT1); assay: SAR assay for compounds that inhibit PHOSPHO1. [Related pubchem assays (depositor defined):AID1545, AID1565, AID1574]
[23] = molecular target: T8, Mannose-6-phosphate isomerase (Homo sapiens, UniProt P34949); assay: PMI enzyme inhibitors, confirmation, biochemical, fluorescence intensity (AID 1535)
T8 sequence (P34949 whole entry): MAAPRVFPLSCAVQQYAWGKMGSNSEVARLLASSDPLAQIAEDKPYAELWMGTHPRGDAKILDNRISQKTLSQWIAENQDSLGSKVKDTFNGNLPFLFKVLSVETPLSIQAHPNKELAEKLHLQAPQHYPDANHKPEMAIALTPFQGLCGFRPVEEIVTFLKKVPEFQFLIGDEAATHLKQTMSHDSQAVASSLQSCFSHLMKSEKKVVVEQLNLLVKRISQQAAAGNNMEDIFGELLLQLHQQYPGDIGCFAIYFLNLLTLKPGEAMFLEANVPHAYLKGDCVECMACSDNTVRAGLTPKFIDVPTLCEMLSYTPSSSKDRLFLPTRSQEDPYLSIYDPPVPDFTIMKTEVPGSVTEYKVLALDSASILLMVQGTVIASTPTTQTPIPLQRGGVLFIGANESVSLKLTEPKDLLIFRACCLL

[24] = molecular target: T6, DNA dC->dU-editing enzyme APOBEC-3G; assay: Dose Response confirmation of small molecule APOBEC3G DNA Deaminase Inhibitors via a fluorescence-based single-stranded DNA deaminase assay. [Related pubchem assays (depositor defined):AID493012, AID493028]; format: functional
[25] = molecular target: T4, DNA dC->dU-editing enzyme APOBEC-3A; assay: APOBEC3A DNA deaminase inhibitors, dose response, biochemical (AID 504722); format: functional

T1 sequence (P11940 whole entry): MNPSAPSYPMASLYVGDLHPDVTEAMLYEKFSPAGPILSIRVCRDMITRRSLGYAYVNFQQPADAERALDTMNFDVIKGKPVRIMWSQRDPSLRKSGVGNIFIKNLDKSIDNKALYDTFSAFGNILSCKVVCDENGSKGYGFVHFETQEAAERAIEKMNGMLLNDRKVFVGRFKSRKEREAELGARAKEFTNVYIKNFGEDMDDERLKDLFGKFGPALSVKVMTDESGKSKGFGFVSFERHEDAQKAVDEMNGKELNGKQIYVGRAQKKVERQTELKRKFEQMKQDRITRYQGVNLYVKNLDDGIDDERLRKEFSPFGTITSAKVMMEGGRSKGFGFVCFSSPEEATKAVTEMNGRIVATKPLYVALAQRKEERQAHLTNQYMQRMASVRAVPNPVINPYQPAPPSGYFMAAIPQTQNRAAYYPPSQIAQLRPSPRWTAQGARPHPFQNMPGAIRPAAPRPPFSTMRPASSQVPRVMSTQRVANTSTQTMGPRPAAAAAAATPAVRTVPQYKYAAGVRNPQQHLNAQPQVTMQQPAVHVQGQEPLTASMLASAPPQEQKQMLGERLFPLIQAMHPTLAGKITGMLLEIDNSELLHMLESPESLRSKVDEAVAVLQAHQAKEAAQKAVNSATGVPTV
T4 sequence (P31941 whole entry): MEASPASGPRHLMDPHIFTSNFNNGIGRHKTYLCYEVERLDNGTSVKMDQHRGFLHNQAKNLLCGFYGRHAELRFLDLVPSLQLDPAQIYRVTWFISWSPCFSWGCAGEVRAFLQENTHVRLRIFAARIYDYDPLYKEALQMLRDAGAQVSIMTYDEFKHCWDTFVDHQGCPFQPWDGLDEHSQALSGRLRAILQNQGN
T6 sequence (Q9HC16 whole entry): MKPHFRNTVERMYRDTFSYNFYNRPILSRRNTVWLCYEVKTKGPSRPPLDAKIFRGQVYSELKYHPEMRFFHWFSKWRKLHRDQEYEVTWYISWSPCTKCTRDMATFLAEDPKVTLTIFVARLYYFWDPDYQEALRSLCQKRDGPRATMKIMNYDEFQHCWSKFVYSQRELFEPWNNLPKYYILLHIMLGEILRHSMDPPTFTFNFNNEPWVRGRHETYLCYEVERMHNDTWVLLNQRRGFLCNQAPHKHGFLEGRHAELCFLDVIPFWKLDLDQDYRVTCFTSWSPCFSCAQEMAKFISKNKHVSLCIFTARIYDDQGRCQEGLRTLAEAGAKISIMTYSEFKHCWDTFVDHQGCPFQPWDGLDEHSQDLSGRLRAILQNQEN
Chain of Phosphoethanolamine/phosphocholine phosphatase (Q8TCT1 whole entry): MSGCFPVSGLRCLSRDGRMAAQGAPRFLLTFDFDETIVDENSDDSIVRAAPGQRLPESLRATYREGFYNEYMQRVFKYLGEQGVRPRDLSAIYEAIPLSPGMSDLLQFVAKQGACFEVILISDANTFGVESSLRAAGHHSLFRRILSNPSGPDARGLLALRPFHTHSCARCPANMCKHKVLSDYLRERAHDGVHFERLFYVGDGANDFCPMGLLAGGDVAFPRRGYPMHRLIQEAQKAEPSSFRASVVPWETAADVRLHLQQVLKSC
Chain of Female germline-specific tumor suppressor gld-1 (Q17339 whole entry): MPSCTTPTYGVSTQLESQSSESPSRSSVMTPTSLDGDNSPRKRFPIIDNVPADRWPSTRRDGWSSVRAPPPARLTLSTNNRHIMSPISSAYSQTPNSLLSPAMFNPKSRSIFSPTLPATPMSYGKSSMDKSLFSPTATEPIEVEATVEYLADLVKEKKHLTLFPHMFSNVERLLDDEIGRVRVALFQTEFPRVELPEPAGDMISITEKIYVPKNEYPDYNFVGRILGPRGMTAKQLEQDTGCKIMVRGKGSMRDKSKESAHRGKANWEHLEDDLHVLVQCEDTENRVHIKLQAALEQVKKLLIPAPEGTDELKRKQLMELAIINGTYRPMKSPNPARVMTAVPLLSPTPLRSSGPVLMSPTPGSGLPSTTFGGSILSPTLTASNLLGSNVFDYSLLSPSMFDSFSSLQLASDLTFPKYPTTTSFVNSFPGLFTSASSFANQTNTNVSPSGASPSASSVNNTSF
Chain of Protein Rev (P04618 whole entry): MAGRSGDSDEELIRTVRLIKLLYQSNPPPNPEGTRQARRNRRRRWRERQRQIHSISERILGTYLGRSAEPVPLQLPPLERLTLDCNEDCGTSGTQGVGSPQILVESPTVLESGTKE
Chain of Nonstructural protein 1 (Q194T2 whole entry): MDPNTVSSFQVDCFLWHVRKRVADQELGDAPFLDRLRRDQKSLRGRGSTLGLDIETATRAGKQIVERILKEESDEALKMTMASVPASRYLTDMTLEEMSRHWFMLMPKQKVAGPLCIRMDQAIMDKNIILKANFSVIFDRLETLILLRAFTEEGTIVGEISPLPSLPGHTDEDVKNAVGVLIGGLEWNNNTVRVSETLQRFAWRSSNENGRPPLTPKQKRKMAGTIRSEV

With O=C(CCS(=O)(=O)c1ccc(F)cc1)Nc1nc(-c2ccccn2)cs1 the CC50 [1] was 12 µM (active), the CC50 [2] was 23.6 µM (active) and the IC50 [3] was 6.21 µM (active). The AC50 [4] was 99.2 µM (active), the CC50 [5] was 21.1 µM (active) and the CC50 [6] was > 20 µM (active). For the same compound, the IC50 [7] was 21.5 µM (active).
For COc1ccc(NC(=O)Nc2cc(C)cc(C)c2)cn1, the IC50 [8] was > 66 µM (inactive), the IC50 [9] was 7.15 µM (active) and the IC50 [10] was 11.4 µM (not active). For the same compound, the IC50 [11] was 21.8 µM (inactive), the EC50 [12] was 186 µM (active) and the EC50 [13] was 27.4 µM (active).
With COc1ccc2sc(NC(=O)c3ccco3)nc2c1 the AC50 [14] was 7.49 µM (active), the IC50 [15] was 17.3 µM (active) and the AC50 [16] was 8.55 µM (active). The IC50 [17] was > 67.5 µM (inactive), the IC50 [18] was > 67.5 µM (inactive) and the AC50 [19] was > 52 µM (inactive). For the same compound, the IC50 [20] was 10.3 µM (active).
For O=c1c2ccccc2sn1-c1cccc(C(F)(F)F)c1, the IC50 [21] was > 100 µM (inactive), the IC50 [22] was 11.6 µM (inactive) and the IC50 [23] was 23.7 µM (active).
In the case of Fc1cccc(Cl)c1/C=N/n1c(S)nnc1-c1cccnc1, the IC50 [24] was 2.73 µM (active) and the IC50 [25] was > 100 µM (inactive).
